From publication PMC9267852, “Hepatic Expression of the Na^+-Taurocholate Cotransporting Polypeptide Is Independent from Genetic Variation” (International Journal of Molecular Sciences, 2022) come the findings set out here.

Positions count from the first letter of the chain named.

Holding throughout (type): cell-based
Assay [1] deals with T1, Na+-taurocholate cotransporting polypeptide (NTCP) (Homo sapiens, UniProt Q14973).
T1 construct: gene SLC10A1
T1 sequence (Q14973 1-349): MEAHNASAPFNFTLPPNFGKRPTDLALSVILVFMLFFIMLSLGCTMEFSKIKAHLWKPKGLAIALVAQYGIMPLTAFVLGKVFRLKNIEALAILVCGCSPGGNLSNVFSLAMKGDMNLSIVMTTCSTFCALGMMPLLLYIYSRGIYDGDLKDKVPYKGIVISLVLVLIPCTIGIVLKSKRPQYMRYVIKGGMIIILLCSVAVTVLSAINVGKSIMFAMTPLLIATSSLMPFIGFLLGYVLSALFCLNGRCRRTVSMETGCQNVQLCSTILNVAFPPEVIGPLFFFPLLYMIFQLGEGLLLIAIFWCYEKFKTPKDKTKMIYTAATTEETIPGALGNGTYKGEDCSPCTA
Description: inhibition of [3H]taurocholate uptake in NTCP-expressing HEK cells; remdesivir also taken up sodium-dependently (Km […]).

Assay [2] deals with T2, Na+-taurocholate cotransporting polypeptide (NTCP) (Homo sapiens, UniProt Q14973, R185C).
T2 construct: gene SLC10A1; NTCP-p.R185C, stably expressed in HEK cells
T2 sequence (Q14973 1-349 R185C): T1 sequence (Q14973 1-349) with R185C
Description: inhibition of [3H]taurocholate uptake in NTCP-R185C-expressing HEK cells; sodium-dependent remdesivir uptake Km […].

The target of assay [3] is T3, Na+-taurocholate cotransporting polypeptide (NTCP) (Homo sapiens, UniProt Q14973, S213R).
T3 construct: gene SLC10A1; NTCP-p.S213R, stably expressed in HEK cells
T3 sequence (Q14973 1-349 S213R): T1 sequence (Q14973 1-349) with S213R
Description: inhibition of [3H]taurocholate uptake in NTCP-S213R-expressing HEK cells; sodium-dependent remdesivir uptake Km […].

For orientation: IC50 means the concentration needed to halve the response being measured. Low readings indicate greater potency, high ones weaker potency. In the case of `CCC(CC)COC(=O)[C@H](C)N[P@](=O)(OC[C@H]1O[C@@](C#N)(c2ccc3c(N)ncnn23)[C@H](O)[C@@H]1O)Oc1ccccc1` [remdesivir], the IC50 in assay [1] was 90.3 µM; in assay [2], 65 µM; in assay [3] it was 63.1 µM.
